The text below walks through data of patent EP3009422A1, “Photo-switchable sulfonylureas and their uses” (Ludwig-Maximilians-Universität München, priority 2014, dated 2016).

This data set in a line: pKa measurement, absorbance-based platereader assay. It counts as physicochemical. The settings on record: DMSO/buffer mixture (1/1), pH 3.33-6.33, sigmoidal fitting, n = 3 assays. As for the experimental part:
Extinction coefficients were measured on a BMG Labtech Omega Series FLUOstar microplate reader with clear flat-bottom white 96 wellplates by full spectra acquirement in low K^+ external bath buffer (containing in mM: 3 KCl, 118 NaCl, 25 NaHCO3, 2 CaCl2, 1 MgCl2, 10 HEPES; NaOH to pH 7.4). All JB253-containing solutions (dilution series, n = 4: 10 nM; 100 nM; 1 µM; 10 µM; 25 µM; 50 µM) were background substracted and fitted with a linear slope. […] Full absorbance spectra (280-800 nm) were acquired and background subtracted before spectral differences were calculated. The total change of maximal positive and maximal negative difference was calculated and plotted against pH. Sigmoidal fit of the obtained plot gave access to the pKa.

The structures appear in SMILES notation.

As for `CCN(CC)c1ccc(/N=N/c2ccc(S(=O)(=O)NC(=O)NC3CCCCC3)cc2)cc1` [JB253, (E)-N-(cyclohexylcarbamoyl)-4-((4-(diethylamino)phenyl)diazenyl)benzenesulfonamide], the pKa amounted to 4.76.
